One assay relates to OPC-DRG co-cultures. Briefly: Myelination assay in OPC-DRG co-cultures (Myelination Index). The class given is cell-based, rat OPCs, mouse DRG neurons. The conditions noted are these: day 4 to day 15. The protocol: (§1) The pharmacological profile of Asinex 1 was assessed in three different in vitro assays of increasing complexity in oligodendrocyte precursor cells (OPCs) natively expressing GPR17. Primary rat OPCs were cultured either alone or in the presence of mouse DRG neurons, according to a well-established protocol, previously described in Fumagalli et al. ([2015]). The endogenous GPR17 ligands UDP and LTD4 were selected as reference ligands. For more details on culture preparation and analysis, see Supplementary Information.
GPR17 ligands were tested both in primary OPCs culture and in OPC/DRG co-cultures to assess their pro-differentiation and pro-myelination effect, respectively. According to the type of culture, a specific protocol of treatment was set up. For primary OPCs, cells were seeded on 13 mm poly-D,L-ornithine-coated coverslips (2 × 10^4 cells/well) and maintained for 2 days in Neurobasal medium supplemented with B27 and proliferative factors (PDGF-BB and bFGF). Afterwards, OPC differentiation was induced by removing proliferative factors and by adding T3 and pharmacological treatments with Asinex 1 (1 or 10 nM) and LTD4 (200 nM), selected as reference compound, were performed the following day. After 48 h, cells were fixed for immunocytochemistry (ICC). For OPC/DRG co-cultures, Asinex 1 (10 nM) and UDP (100 μM) were added to cultures at day 4. […]

Assay [1] concerns the target T1, GPR17 (Rattus norvegicus, UniProt Q09QM4).
T1 construct: oligodendrocyte precursor cells (OPCs) natively expressing GPR17; endogenous in cells; host or cells: primary OPCs from postnatal day 2 Sprague-Dawley rat cortex
Briefly: cAMP assay: inhibition of forskolin-stimulated adenylyl cyclase activity in primary OPCs. In kind it is cell-based. The protocol: as §1
In order to determine the intracellular cAMP levels, primary purified OPCs were treated with Asinex 1 after 6 days in culture, when GPR17 expression reaches the maximum peak. A competitive protein binding method was used following the procedure previously described (Fumagalli et al., [2015]). Briefly, culture medium was removed, and cells were incubated at 37°C for 15 min with 400 μL of Neurobasal medium in the presence of the phosphodiesterase inhibitor Ro20-1724 (20 μM). The concentration-response curve of tested ligands was assessed by measuring their ability to inhibit cAMP accumulation stimulated by 10 μM forskolin. Asinex 1 was added to cells for 15 min at graded concentration (0.1–50 nM). […] Reactions were terminated by medium removal and addition of 200 μL of 0.4 N HCl. After 30 min, lysates were neutralized with 50 μL of 4 N KOH, and the suspension was centrifuged at 800× g for 5 min. For determination of cAMP, cAMP-binding protein isolated from bovine adrenal glands was incubated with [^3H]cAMP (2 nM), 50 μL of cell lysate or cAMP standard (0–16 pmol) at 4°C for 150 min, in a total volume of 300 μL. Bound radioactivity was separated by rapid filtration through GF/C glass fiber filters and washed twice with 4 mL of 50 mM Tris-HCl, pH 7.4. Radioactivity was measured by liquid scintillation spectrometry.
For orientation: cAMP levels reflect the balance of adenylyl cyclase and phosphodiesterase activity.

For assay [2], the system named is GPR17. Also on record: method as in earlier work. The conditions noted are these: literature functional assay, ref Abbracchio et al., 2006, Ciana et al., Eberini et al., 2011; cited from earlier work.
Another assay deals with primary OPCs. Briefly: OPC differentiation assay (MBP+ cells, immunocytochemistry). The conditions noted are these: 48 h. In kind it is cell-based, rat. The protocol:
as §1
GPR17 ligands were tested both in primary OPCs culture and in OPC/DRG co-cultures to assess their pro-differentiation and pro-myelination effect, respectively. According to the type of culture, a specific protocol of treatment was set up. For primary OPCs, cells were seeded on 13 mm poly-D,L-ornithine-coated coverslips (2 × 10^4 cells/well) and maintained for 2 days in Neurobasal medium supplemented with B27 and proliferative factors (PDGF-BB and bFGF). Afterwards, OPC differentiation was induced by removing proliferative factors and by adding T3 and pharmacological treatments with Asinex 1 (1 or 10 nM) and LTD4 (200 nM), selected as reference compound, were performed the following day. After 48 h, cells were fixed for immunocytochemistry (ICC). For OPC/DRG co-cultures, Asinex 1 (10 nM) and UDP (100 μM) were added to cultures at day 4. The pharmacological treatment was repeated every 2 days up to day 15, when cells were fixed for ICC analysis. For more details, see Supplementary Information.
Oligodendrocyte precursor cell cultures
Primary oligodendrocyte precursor cells (OPCs) were isolated from mixed glial cultures prepared from postnatal day 2 Sprague-Dawley rat cortex by shaking cells on an orbital shaker at 200 rpm, as previously described (Fumagalli et al., 2015). OPCs were then collected and separated from microglia by incubation for 1 h in an uncoated Petri dish. […]

T1 sequence (Q09QM4 whole entry): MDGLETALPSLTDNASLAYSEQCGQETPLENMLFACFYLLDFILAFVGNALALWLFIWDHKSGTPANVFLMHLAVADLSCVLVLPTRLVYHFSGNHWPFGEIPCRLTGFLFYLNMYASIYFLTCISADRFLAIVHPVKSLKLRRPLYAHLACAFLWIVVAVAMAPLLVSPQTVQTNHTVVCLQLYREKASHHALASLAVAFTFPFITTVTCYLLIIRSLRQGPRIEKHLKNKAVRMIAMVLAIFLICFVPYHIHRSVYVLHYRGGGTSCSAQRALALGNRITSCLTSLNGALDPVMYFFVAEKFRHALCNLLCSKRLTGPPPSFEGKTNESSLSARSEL

`O=c1ccn([C@@H]2O[C@H](COP(=O)(O)OP(=O)(O)O)[C@@H](O)[C@H]2O)c(=O)[nH]1` [UDP]: the “Myelination Index (control 100%)” value in the assay on OPC-DRG co-cultures (100 μM) is recorded as 193.9 ± 32.31%.

Take `CSCCNc1nc(SCCC(F)(F)F)nc2c1ncn2[C@@H]1O[C@H](COP(=O)(O)OP(=O)(O)C(Cl)(Cl)P(=O)(O)O)[C@@H](O)[C@H]1O` [Cangrelor]: the IC50 on GPR17 [1] (primary OPCs, constant ASN 1 concentration of 10 nM, read-out: IC50, antagonism of ASN 1-mediated inhibition of forskolin-stimulated adenylyl cyclase activity) was found to be 10.2 ± 0.8 nM. Further, the “ratio between Cangrelor and Asinex 1 affinities” value with GPR17 [2] is listed as 7.

For `COc1ccc(-n2c(SC(C)C(=O)Nc3ccccc3)nnc2-c2ccccc2OC)cc1` (stereo not drawn) [Asinex 1, 2-[[5-(2-methoxyphenyl)-4-(4-methoxyphenyl)-4H-1,2,4-triazol-3-yl]thio]-N-phenyl-propanamide], in the assay with OPC-DRG co-cultures (10 nM), the “Myelination Index (control 100%)” value is 240.3 ± 64.43%. Moreover, on GPR17 [1] (primary OPCs, 10 μM forskolin, 0.1–50 nM, read-out: EC50, inhibition of forskolin-stimulated cAMP formation), the EC50 amounted to 6.5 ± 0.8 nM. On GPR17 [1] (primary rat OPCs, nucleotide binding site), the “pharmacological profile at GPR17” value is recorded as “full agonist”. Further, the “percentage of MBP+ cells (control set to 100%)” value stood at 166.5 ± 16.21% with primary OPCs (1 nM) and 158.3 ± 15.77% with primary OPCs (10 nM).

As to `CCCCC/C=C\C\C=C/C=C/C=C/[C@@H](SC[C@H](N)C(=O)NCC(=O)O)[C@@H](O)CCCC(=O)O` [LTD4], the “percentage of MBP+ cells (control set to 100%)” value with primary OPCs (200 nM) is given as 171.0 ± 21.70%.

What is called IC50 is the concentration at which inhibition is half-maximal. One may read the EC50 as the concentration giving half of the maximal effect.

The values above are taken from paper PMC6966494, “Surface Plasmon Resonance as a Tool for Ligand Binding Investigation of Engineered GPR17 Receptor, a G Protein Coupled Receptor Involved in Myelination” (Frontiers in Chemistry, 2020).
